The record followed here is PubChem BioAssay (NCI).

Each structure is given as a SMILES string. Several values for one entry are separate records, joined by “and”; a condition that tells them apart may be missing. Identical values can stand only once.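 Dose response: 5 concentrations. Exposure: 48 h. Format: 96-well plates. Endpoint: linear interpolation; highest concentration if not reached. Here, GI50 denotes the concentration required for 50% inhibition of growth. TGI marks complete inhibition of growth.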

Among the test systems are HS 578T breast; HT29 colon; SN12C renal; OVCAR-8 ovarian; HL-60(TB) leukemia; SF-295 CNS; SNB-75 CNS; PC-3 prostate; CCRF-CEM leukemia; SF-539 CNS.
What all share (experiment): inhibition of tumour cell growth, NCI panel, 48 h

Turning to `Cc1cc(Nc2cc(N3CCN(C)CC3)nc(Sc3ccc(NC(=O)C4CC4)cc3)n2)n[nH]1`, the GI50 is 3.46 µM with HS 578T breast; 1.18 µM in the experiment with HT29 colon; 3.59 µM in the experiment on SN12C renal; 7.54 µM with OVCAR-8 ovarian; 0.283 µM in the experiment with HL-60(TB) leukemia; 1.28 µM with SF-295 CNS. Besides, the GI50 is 2.71 µM in the experiment with SNB-75 CNS, 4.24 µM in the experiment on PC-3 prostate, 0.00613 µM with CCRF-CEM leukemia and 1.92 µM in the experiment with SF-539 CNS. In addition, the TGI in the experiment on HS 578T breast, in the experiment on HT29 colon, in the experiment on SN12C renal, with OVCAR-8 ovarian, in the experiment on HL-60(TB) leukemia and with SF-295 CNS was above 10 µM throughout. The TGI with SNB-75 CNS, in the experiment on PC-3 prostate, with CCRF-CEM leukemia and in the experiment on SF-539 CNS was above 10 µM in each case.
Regarding `CCN1C[C@]2(COC)[C@H](O)C[C@H](OC)[C@]34C1[C@H]([C@H](OC)[C@H]23)[C@]1(OC(C)=O)[C@H]2[C@@H](OC(=O)c3ccccc3)[C@](O)(C[C@H]24)[C@@H](OC)[C@@H]1O`, the TGI in the experiment on HS 578T breast, in the experiment on HT29 colon, in the experiment on SN12C renal, in the experiment with OVCAR-8 ovarian, in the experiment with HL-60(TB) leukemia and in the experiment on SF-295 CNS was above 100 µM throughout. Also, the TGI in the experiment on SNB-75 CNS, with PC-3 prostate, with CCRF-CEM leukemia and in the experiment on SF-539 CNS was above 100 µM in each case.
Regarding `Cc1cc(Cl)ccc1Nc1nc(C(F)(F)F)ccc1C(=O)N/N=C/c1ccccc1Cl`, the GI50 was 1.26 µM in the experiment on HS 578T breast; 2.01 µM in the experiment with HT29 colon; 1.45 µM with SN12C renal; 2.16 µM with OVCAR-8 ovarian; 1.12 µM in the experiment with HL-60(TB) leukemia; 0.691 µM in the experiment on SF-295 CNS. For the same compound, the GI50 in the experiment with SNB-75 CNS was 2.29 µM; in the experiment with PC-3 prostate it was 0.866 µM; in the experiment on CCRF-CEM leukemia it was 0.341 µM; in the experiment with SF-539 CNS, 1.22 µM. Also, the TGI with HS 578T breast was 5.67 µM; in the experiment with HT29 colon it was above 41.9 µM; in the experiment on SN12C renal it was above 54.3 µM; in the experiment on OVCAR-8 ovarian, above 92.7 µM; with SF-295 CNS it was 4.12 µM; in the experiment on SNB-75 CNS, above 29.3 µM. For the same compound, the TGI with PC-3 prostate was above 26 µM; in the experiment on CCRF-CEM leukemia, 4.78 µM; with SF-539 CNS, 3.6 µM.
`COc1cccc(/C(C)=N/NC(=O)CSc2nc3ccccc3c(=O)n2CCc2ccc(S(N)(=O)=O)cc2)c1`: the GI50 is 3.54 µM with HS 578T breast; 2.36 µM with HT29 colon; 4.52 µM in the experiment on SN12C renal; 2.32 µM with OVCAR-8 ovarian; above 100 µM in the experiment with HL-60(TB) leukemia; 4.02 µM with SF-295 CNS. For the same compound, the GI50 was 5.86 µM in the experiment with SNB-75 CNS, 3.51 µM in the experiment with PC-3 prostate, 5.31 µM in the experiment on CCRF-CEM leukemia and 1.88 µM with SF-539 CNS. Moreover, the TGI was 15.9 µM in the experiment with HS 578T breast; 5.31 µM in the experiment with HT29 colon; 19.5 µM in the experiment with SN12C renal; 4.88 µM in the experiment with OVCAR-8 ovarian; above 100 µM in the experiment with HL-60(TB) leukemia; 16.3 µM in the experiment on SF-295 CNS. In addition, the TGI in the experiment on SNB-75 CNS was 26.9 µM; in the experiment on PC-3 prostate, 22.2 µM; with CCRF-CEM leukemia, above 100 µM; in the experiment with SF-539 CNS it was 3.98 µM.
Turning to `CN1CCN(CCOc2cc(OC3CCOCC3)c3c(Nc4c(Cl)ccc5c4OCO5)ncnc3c2)CC1`, the GI50 in the experiment on HS 578T breast was 0.732 µM and 1.7 µM; with HT29 colon, 0.634 µM and 1.26 µM; with SN12C renal, 0.736 µM and 3.31 µM; with OVCAR-8 ovarian, 8.55 µM and 8.64 µM; in the experiment on HL-60(TB) leukemia, 18.7 µM and > 10 µM; with SF-295 CNS it was 5.83 µM and > 10 µM. For the same compound, the GI50 in the experiment with SNB-75 CNS was 0.206 µM and 0.209 µM; in the experiment with PC-3 prostate, 19.3 µM and > 10 µM; in the experiment on CCRF-CEM leukemia, 21.5 µM and > 10 µM; in the experiment on SF-539 CNS, 6.5 µM and 6.41 µM. For the same compound, the TGI in the experiment on HS 578T breast is 11.2 µM and > 10 µM; in the experiment with HT29 colon it was 5.47 µM and > 10 µM; with SN12C renal, 27.2 µM and > 10 µM; in the experiment with OVCAR-8 ovarian, 34 µM and > 10 µM; in the experiment on HL-60(TB) leukemia, 37.8 µM and > 10 µM; with SF-295 CNS, 25.3 µM and > 10 µM. Further, the TGI with SNB-75 CNS was 3.47 µM and > 10 µM; with PC-3 prostate, above 100 µM; in the experiment with CCRF-CEM leukemia, 76.3 µM and > 10 µM; in the experiment on SF-539 CNS it was 21.1 µM and > 10 µM.
`NC(=Nc1ccc(N)cc1)C(N)=Nc1ccc(N)cc1`: the GI50 with HS 578T breast was above 100 µM; with HT29 colon, 63.4 µM; in the experiment on SN12C renal, above 100 µM; in the experiment on OVCAR-8 ovarian, 69.1 µM; in the experiment with HL-60(TB) leukemia, 57.1 µM; with SF-295 CNS, above 100 µM. The GI50 in the experiment with SNB-75 CNS is above 100 µM; with PC-3 prostate it was 98.6 µM; with CCRF-CEM leukemia, 45.7 µM; in the experiment with SF-539 CNS, 73.7 µM. The TGI in the experiment with HS 578T breast, in the experiment with HT29 colon, in the experiment on SN12C renal, with OVCAR-8 ovarian, with HL-60(TB) leukemia and in the experiment with SF-295 CNS was above 100 µM throughout. In addition, the TGI in the experiment on SNB-75 CNS, in the experiment with PC-3 prostate, in the experiment with CCRF-CEM leukemia and in the experiment with SF-539 CNS was above 100 µM each time.
On to `CCS(=O)(=O)c1ccc(OC)c(Nc2ncc(-c3ccccc3Cl)o2)c1`, for which the GI50 is 11.5 µM in the experiment with HS 578T breast; 8.01 µM in the experiment with HT29 colon; 14.9 µM in the experiment on SN12C renal; 9.9 µM in the experiment on OVCAR-8 ovarian; 11.8 µM in the experiment on HL-60(TB) leukemia; 9.43 µM in the experiment with SF-295 CNS. In addition, the GI50 is 9.11 µM in the experiment with SNB-75 CNS, 11.4 µM in the experiment on PC-3 prostate, 9.78 µM with CCRF-CEM leukemia and 10.6 µM in the experiment with SF-539 CNS. Moreover, the TGI is above 25 µM with HS 578T breast; above 20.5 µM with HT29 colon; above 25 µM with SN12C renal; above 25 µM in the experiment with OVCAR-8 ovarian; above 21.5 µM in the experiment on HL-60(TB) leukemia; above 25 µM in the experiment with SF-295 CNS. Moreover, the TGI was 24.6 µM in the experiment with SNB-75 CNS, above 25 µM in the experiment with PC-3 prostate, above 25 µM in the experiment on CCRF-CEM leukemia and above 25 µM in the experiment with SF-539 CNS.
For the compound `Nc1ccccc1C#C/C=C\C#Cc1c(F)c(F)c(F)c(F)c1F`, the GI50 in the experiment on HS 578T breast was 32.7 µM; in the experiment on HT29 colon it was 19.7 µM; in the experiment on SN12C renal it was 7.37 µM; in the experiment on OVCAR-8 ovarian, 17.1 µM; in the experiment on HL-60(TB) leukemia it was 28.8 µM; in the experiment with SF-295 CNS, 20.3 µM. Moreover, the GI50 was 41.8 µM in the experiment on SNB-75 CNS, 16.6 µM with PC-3 prostate, 0.385 µM in the experiment on CCRF-CEM leukemia and 20.9 µM in the experiment on SF-539 CNS. Moreover, the TGI in the experiment with HS 578T breast is above 100 µM; with HT29 colon, 50.7 µM; in the experiment on SN12C renal, 20.5 µM; in the experiment with OVCAR-8 ovarian it was 36.7 µM; with HL-60(TB) leukemia, 57.1 µM; in the experiment with SF-295 CNS it was 46.6 µM. Besides, the TGI is above 100 µM in the experiment on SNB-75 CNS, 43.3 µM in the experiment on PC-3 prostate, 14.2 µM with CCRF-CEM leukemia and 47.1 µM in the experiment with SF-539 CNS.
